Assay results published in ChEMBL document CHEMBL4483862, “Open-source discovery of chemical leads for next-generation chemoprotective antimalarials” (2018).

Test system: Plasmodium berghei
Test: Luciferase/luciferin-expressing antifolate-resistant parasites were used to infect a culture of HepG2 cells that were pre-incubated with compounds. Infected hepatocytes emit light due to the luciferase reaction. Assay results are presented as the percent inhibition of light emission compared to control. […]
Type: functional
Details: sporozoite; for IC50: read-out: LUCIFERASE INFECTION ASSAY - IC50; for IC90: read-out: LUCIFERASE INFECTION ASSAY - IC90

Row | Structure (SMILES) | IC50 | IC90
1 | Cc1cccc(C)c1OCCOC(=O)c1[nH]nc2ccccc12 | > 10 µM | > 10 µM
2 | c1nc(NCC2(N3CCOCC3)CCCCC2)c2ccsc2n1 | > 10 µM | > 10 µM
3 | Cc1ccc2c(CC(=O)Nc3sccc3C(N)=O)coc2c1 | > 10 µM | > 10 µM
4 | Cc1cc(C)cc(C(=O)Nc2nc3ccccc3[nH]2)c1 | 7.33 µM | > 10 µM
5 | CN(CCOc1ccc(Br)cc1)CC(O)COc1ccc(C#N)cc1 (centres undefined) | 8.69 µM | > 10 µM
6 | COc1ccc(Nc2nc(CN3CCN(Cc4ccc(C#N)cc4)CC3)cs2)cc1 | > 10 µM | > 10 µM
7 | CNS(=O)(=O)c1ccc(CNc2ncnc3cc(-c4ccc(OC)cc4)sc23)s1 | 0.653 µM | 2.1 µM
8 | CCc1cccc2c(/C=C3\C(=O)Nc4ccccc43)c[nH]c12 | 6.04 µM | > 10 µM
9 | O=S(=O)(c1ccc(C2=NNC(=NC3CC3)SC2)cc1)N1CCCCC1 | > 10 µM | > 10 µM
10 | Cc1noc2nc(C(C)C)cc(C(=O)Nc3nc4ccccc4[nH]3)c12 | > 10 µM | > 10 µM
11 | CCCCNC(=O)c1c(NC(=O)c2c(F)ccc(F)c2F)nc2ccccn12 | > 8.45 µM | > 8.45 µM
12 | O=C(Nc1ccc(N2CCOCC2)cc1)c1ccccc1Nc1ccc(F)cc1 | > 10 µM | > 10 µM
13 | NC(=O)NC(=O)C(Nc1ccc(Oc2ccccc2)cc1)c1ccccc1 (centres undefined) | > 10 µM | > 10 µM
14 | O=C(Nc1ccc2c[nH]nc2c1)c1cccc(Oc2ccccc2)c1 | > 10 µM | > 10 µM
15 | N#Cc1ccc(CN2CCCN(c3ncnc4sccc34)CC2)cc1 | 1.67 µM | > 10 µM
16 | CCCN(CC(=O)Nc1cc(Cl)ccc1Cl)CC(=O)Nc1sccc1C(N)=O | > 10 µM | > 10 µM
17 | Cc1nn2c(nc(NCCCc3n[nH]c(N)c3C#N)c3ccccc32)c1Cl | > 10 µM | > 10 µM
18 | N#Cc1ccnc(N2CCN(c3ncnc4scc(-c5ccccc5)c34)CC2)c1 | > 10 µM | > 10 µM
19 | c1ccc(-c2cc(NCc3cccs3)nc3ccccc23)cc1 | > 10 µM | > 10 µM
20 | Cc1sc2nc(-c3cccnc3)nc(NC3CCC(O)CC3)c2c1-c1ccccc1 (centres undefined) | > 10 µM | > 10 µM
21 | Cc1ccc(C2=NNC(=Nc3cccc(S(=O)(=O)N(C)C)c3)SC2)cc1 | 3.5 µM | 4.33 µM
22 | Cc1ccc2nc(NC(=O)c3ccc(Cl)cc3)c(C(=O)NCC(C)C)n2c1 | 2.76 µM | 2.91 µM

Row | Structure (SMILES) | IC50 | IC90
23 | c1ccc(-c2csc3ncnc(N4CCN(c5cnccn5)CC4)c23)cc1 | > 10 µM | > 10 µM
24 | COc1cccc(CC(=O)Nc2nc3ccc(C)cn3c2C(=O)NC2CCCC2)c1 | > 8.12 µM | > 8.12 µM
25 | CCCCNC(=O)c1c(NC(=O)c2ccc(F)cc2)nc2ccc(C)cn12 | 2.67 µM | 3.28 µM
26 | O=C(Nc1cccc(S(=O)(=O)Nc2ccc(Cl)cc2)c1)c1[nH]nc2ccccc12 | 8.98 µM | > 10 µM
27 | Cc1noc(C)c1C(=O)Nc1nc(-c2c[nH]c3ccccc23)cs1 | > 10 µM | > 10 µM
28 | Oc1cccc(Nc2nc(N3CCCCC3)c3ccccc3n2)c1 | > 10 µM | > 10 µM
29 | O=C(CCc1c(-c2ccc(F)cc2)[nH]c2ccc(F)cc12)N1CCN(c2ccccn2)CC1 | 3.16 µM | 3.87 µM
30 | CC(=N)C(C#N)c1csc(NC(=O)c2cc(-c3ccccc3)nc3c2cnn3C(C)C)n1 (centres undefined) | 6.35 µM | 9.99 µM
31 | CC(=O)c1ccc(OCC(O)CN2CCC(c3c[nH]c4ccccc34)CC2)cc1 (centres undefined) | 5.84 µM | > 10 µM
32 | O=C(Nc1cccc(-c2nc3ccccc3[nH]2)c1)c1cccc(S(=O)(=O)N2CCCC2)c1 | > 10 µM | > 10 µM
33 | Cc1cccc(-n2cc(-c3ccccc3)c3c(N4CCN(CCO)CC4)ncnc32)c1 | > 10 µM | > 10 µM
34 | CC(C)n1ncc2cc(C(=O)Nc3nc4ccccc4s3)cnc21 | 0.00908 µM | 1.97 µM
35 | Cc1ccc2nc(NC(=O)C3CCCC3)c(C(=O)NC3CCCC3)n2c1 | > 9.31 µM | > 9.31 µM
36 | COc1ccc2c(-c3ccccc3)cc(SCC(=O)Nc3sccc3C(N)=O)nc2c1 | 7.85 µM | 9.16 µM
37 | Nc1nc(Sc2ncnc3ccsc23)nc2sccc12 | 9.85 µM | > 10 µM
38 | Cc1ccc(CCC2CCN(C(C)C(=O)Nc3cccc(S(N)(=O)=O)c3)CC2)cc1 (centres undefined) | 6.94 µM | > 10 µM
39 | O=S(=O)(c1ccc(N=C2NN=C(c3ccc4ccccc4c3)CS2)cc1)N1CCOCC1 | 4.82 µM | 9.33 µM
40 | Cc1ccc(C(=O)NCc2ccc(-c3ccc(Cl)cc3)o2)cc1NC(=O)c1ccco1 | > 10 µM | > 10 µM
41 | O=C(NCCCn1ccc2ccccc21)Nc1ccc(Cl)c(Cl)c1 | > 10 µM | > 10 µM
42 | COc1ccc(NC(=O)c2ccc(-n3cnc4ccccc43)cc2)cc1Cl | 8.58 µM | > 10 µM
43 | O=C(Nc1cc([N+](=O)[O-])ccc1Cl)Nc1ccccc1-c1nc2ccccc2[nH]1 | > 10 µM | > 10 µM
44 | CCS(=O)(=O)c1ccc2oc(NC(=O)C3CCC3)nc2c1 | > 10 µM | > 10 µM

Row | Structure (SMILES) | IC50 | IC90
45 | Cc1cc(-c2cc(C(=O)NCCN3CCOCC3)c3cnn(C(C)C)c3n2)c(C)s1 | > 10 µM | > 10 µM
46 | CC(C#N)Sc1nc(Nc2ccccc2)c2ccccc2n1 (centres undefined) | > 10 µM | > 10 µM
47 | O=C(CN1CCN(Cc2csc(Nc3cccc(C(F)(F)F)c3)n2)CC1)N1CCCC1 | > 10 µM | > 10 µM
48 | CN(CC(=O)Nc1ccc(Cl)c(C(F)(F)F)c1)CC(=O)Nc1ccc(Cl)cn1 | > 10 µM | > 10 µM
49 | Cc1ccc2nc(NC(=O)c3cccc(Cl)c3Cl)c(C(=O)NC3CCCC3)n2c1 | > 7.65 µM | > 7.65 µM
50 | Cc1ccc(NC(=O)c2cc(-c3ccc4c(c3)OCCO4)nc3c2cnn3C(C)C)nc1 | > 10 µM | > 10 µM
51 | Clc1ccccc1Oc1ccc(Nc2ccc3nnnn3n2)cc1 | > 10 µM | > 10 µM
52 | COc1ccc(-c2nc(NC(=O)c3ccc4nc[nH]c4c3)sc2C)cc1 | > 10 µM | > 10 µM
53 | CCCNC(=O)c1c(NC(=O)c2cccc(Cl)c2Cl)nc2ccc(C)cn12 | > 8.14 µM | > 8.14 µM
54 | O=C(Nc1nc2ccccn2c1C(=O)NC1CCCCC1)c1c(F)ccc(F)c1F | > 7.93 µM | > 7.93 µM
55 | Cc1ccc(F)c(Nc2ncnc3sccc23)c1 | > 10 µM | > 10 µM
56 | CC(=O)c1c[nH]c(C(=O)Nc2nc(C)c(-c3ccccn3)s2)c1 | > 10 µM | > 10 µM
57 | Clc1ccc(-c2csc3ncnc(NCc4ccco4)c23)cc1 | > 10 µM | > 10 µM
58 | Fc1ccc(-c2cc3ncnc(NC4CC4)c3s2)cc1 | > 10 µM | > 10 µM
59 | Clc1ccc2c(Sc3nnc4ccccn34)ccnc2c1 | > 10 µM | > 10 µM
60 | Cc1cc(C)cc(NC(=O)CNCCCn2ccc3ccccc32)c1 | > 10 µM | > 10 µM
61 | O=C(COCc1ccccc1)Nc1nc2ccccn2c1C(=O)NC1CCCCC1 | > 8.12 µM | > 8.12 µM
62 | O=C(Nc1cccc(Cl)c1)Nc1nc2ccccc2[nH]1 | > 10 µM | > 10 µM
63 | Cc1cc(C(=O)Nc2nc3c(C)cccn3c2C(=O)NC2CCCC2)c(C)o1 | > 8.67 µM | > 8.67 µM
64 | CCCNC(=O)c1c(NC(=O)c2cccc(C(F)(F)F)c2)nc2ccccn12 | 0.399 µM | 0.786 µM
65 | CC(C)n1ncc2cc(C(=O)Nc3nc(-c4ccccn4)cs3)cnc21 | 1.07 µM | 2.1 µM
66 | COc1cc(C(=O)Nc2nc3ccccc3[nH]2)ccc1C | 5.35 µM | 8.73 µM

Row | Structure (SMILES) | IC50 | IC90
67 | O=C(Cc1c(F)cccc1Cl)Nc1ccccc1-c1nc2ccccc2[nH]1 | 1.73 µM | 7.35 µM
68 | COc1ccc(-c2cc3ncnc(NCc4ccc(S(=O)(=O)N5CCCC5)s4)c3s2)cc1 | 3.52 µM | 4.46 µM
69 | CNC(=O)NC(=O)CNc1ccc(C(F)(F)F)cc1 | > 10 µM | > 10 µM
70 | Cc1cccn2c(C(=O)NC(C)C)c(NC(=O)c3cccc(C(F)(F)F)c3)nc12 | > 8.16 µM | > 8.16 µM
71 | Cc1sc2nc(CN3CCCC3)nc(Oc3ccc4ccncc4c3)c2c1C | 9.51 µM | > 10 µM
72 | COc1ccc2c(-c3ccccc3)cc(NCCc3ccc(S(N)(=O)=O)cc3)nc2c1 | 8.55 µM | > 10 µM
73 | CC(C)CCN(C(=O)CN1c2ccccc2CC1C)c1c(N)n(Cc2ccccc2)c(=O)[nH]c1=O (centres undefined) | > 10 µM | > 10 µM
74 | CN1CCN(c2nc(-c3c(-c4ccc(F)cc4)[nH]c4ccccc34)cs2)CC1 | > 10 µM | > 10 µM
75 | Cc1ccccc1CNc1ncnc2sccc12 | 5.22 µM | > 10 µM
76 | COc1cc(CNc2ncnc3sc(-c4ccccc4)cc23)ccn1 | 8.74 µM | > 10 µM
77 | Cc1ccc2nc(NC(=O)COCc3ccccc3)c(C(=O)NC3CCCCC3)n2c1 | > 7.85 µM | > 7.85 µM
78 | CCCCNC(=O)c1c(NC(=O)c2cccc(F)c2F)nc2ccccn12 | > 8.86 µM | > 8.86 µM
79 | CCC(C)NC(=O)c1c(NC(=O)c2cc(F)c(F)cc2F)nc2ccc(C)cn12 (centres undefined) | 0.917 µM | 1.1 µM
80 | CC(C)n1ncc2c(C(=O)NCCCn3ccc4ccccc43)cc(C3CC3)nc21 | > 10 µM | > 10 µM
81 | NC(=O)c1cc(-c2ccccc2)sc1NC(=O)Nc1ccccc1F | 9.4 µM | > 10 µM
82 | O=C(Nc1ccc(N2CCOCC2)cc1)c1cccc(-c2nn[nH]n2)c1 | > 10 µM | > 10 µM
83 | c1ccc(-c2cc3c(NCc4ccccc4CN4CCOCC4)ncnc3s2)cc1 | > 10 µM | > 10 µM
84 | O=C(c1cnc2cc3c(cc2c1)OCCCO3)c1cc(F)ccc1O | 3.12 µM | 3.65 µM
85 | N#Cc1ccsc1NC(=O)CCN1CCN(Cc2c(F)cccc2Cl)CC1 | > 10 µM | > 10 µM
86 | CC(Nc1ncnc2ccsc12)c1cccc2ccccc12 (centres undefined) | 2.13 µM | > 10 µM
87 | CCCn1c(NC(=O)c2ccc3ncsc3c2)nc2ccccc21 | 8.47 µM | 9.62 µM
